Assays:
[1] = system: Cl2-urea tolerant bacteria; assay: Biocide screening against Cl2-urea tolerant bacteria (Table 4); type: cell-based
[2] = system: Cl2-urea tolerant bacteria; assay: Laboratory screening using process water treated with urea-stabilized chlorine (Table 5); type: cell-based; conditions: for control of Cl2-urea tolerant bacteria (in words): typical use rates, Table 5 screening
[3] = system: urease-producing microorganisms; assay: Antimicrobial screening of biocides for control of urease-producing microorganisms; type: cell-based
[4] = system: microbial population tolerant to urea-stabilized chlorine; assay: Repeat laboratory screening of process water after 10 months of urea-stabilized chlorine treatment; type: cell-based; conditions: 5 ppm Cl2
Procedure: (§1) The process water stream of a paper mill was treated using a urea-stabilized chlorine program.
(§2) Process water samples were challenged with untreated process water (1% v/v) after the 4-hours samples were plated. […] In Table 1, preservation from urea-stabilized chlorine was observed prior to the application of this program to the mill water system and development of the tolerant population.

urease = assay: Chlorine residual (TRO) with and without urease enzyme; type: physicochemical; conditions: control without urease
[5] = system: process water microbial population (paper mill); assay: Initial laboratory screening of paper mill process water treated with NaOCl, before the urea-stabilized chlorine program; type: cell-based; conditions: 5 ppm Cl2
Procedure: as §1, §2

[6] = 24-hour, challenged with untreated process water (1% v/v) after 4-hour plating

| SMILES | CFU/mL, 24-hour ([1]; 25 ppm product) | CFU/mL, 24-hour ([1]; 100 ppm product) | control of Cl2-urea tolerant bacteria (in words) [2] | CFU/mL, 1-hour ([2]; 25 ppm product) | CFU/mL, 4-hour ([2]; 25 ppm product) | CFU/mL, 24-hour ([2]; 25 ppm product) | CFU/mL, 1-hour ([2]; 100 ppm product) | CFU/mL, 4-hour ([2]; 100 ppm product) | CFU/mL, 24-hour ([2]; 100 ppm product) | control of urease-producing microorganisms (in words) [3] | further results |
| --- | --- | --- | --- | --- | --- | --- | --- | --- | --- | --- | --- |
| O=[N+]([O-])C(Br)(CO)CO [Bronopol] | 1.0 × 10^5 CFU/mL | 1.3 × 10^4 CFU/mL | not effective |  |  |  |  |  |  |  |  |
| N#CC(Br)(Br)C(N)=O [Dibromonitrilopropionamide, dibromonitrilopropionamide] | 4.2 × 10^3 CFU/mL | <100 CFU/mL | particularly effective | 1.4 × 10^5 CFU/mL | 7.0 × 10^4 CFU/mL | 3.0 × 10^4 CFU/mL | 6.0 × 10^2 CFU/mL | 2.0 × 10^2 CFU/mL | 3.0 × 10^2 CFU/mL | effective control |  |
| O=CCCCC=O [Glutaraldehyde, glutaraldehyde] | 100 CFU/mL | <100 CFU/mL | particularly effective | 1.0 × 10^6 CFU/mL | 8.5 × 10^3 CFU/mL | 1.0 × 10^2 CFU/mL | 1.0 × 10^2 CFU/mL | 1.0 × 10^2 CFU/mL | 2 × 10^2 CFU/mL | effective control |  |
| [Na+].[O-]Cl [NaOCl, sodium hypochlorite] |  |  | also effective, but was required at higher concentrations |  |  |  |  |  |  | also effective | CFU/mL, Repeat Screening, 1-hour ([4]; 1-hour): 2.8 × 10^6 CFU/mL; CFU/mL, Repeat Screening, 4-hour ([4]; 4-hour): 6.0 × 10^6 CFU/mL; CFU/mL, Repeat Screening, 24-hour [4, 6]: 3.6 × 10^7 CFU/mL; CFU/mL, 24-hour ([1]; 2.5 ppm as Cl2): 5.1 × 10^5 CFU/mL; CFU/mL, 24-hour ([1]; 10.0 ppm as Cl2): <100 CFU/mL; CFU/mL, 1-hour ([2]; 2.5 ppm as Cl2): 1.9 × 10^5 CFU/mL; CFU/mL, 4-hour ([2]; 2.5 ppm as Cl2): 2.0 × 10^6 CFU/mL; CFU/mL, 24-hour ([2]; 2.5 ppm as Cl2): 1.0 × 10^7 CFU/mL; CFU/mL, 1-hour ([2]; 10.0 ppm as Cl2): 2.0 × 10^2 CFU/mL; CFU/mL, 4-hour ([2]; 10.0 ppm as Cl2): 2.0 × 10^2 CFU/mL; CFU/mL, 24-hour ([2]; 10.0 ppm as Cl2): 5.0 × 10^2 CFU/mL; TRO (as ppm Cl2), 1-hour (urease; 1-hour): 4.6 ppm Cl2; TRO (as ppm Cl2), 4-hour (urease; 4-hour): 4.5 ppm Cl2; TRO (as ppm Cl2), 24-hour (urease; 24-hour): 4.1 ppm Cl2; CFU/mL, Initial Screening, 1-hour ([5]; 1-hour): 3.4 × 10^5 CFU/mL; CFU/mL, Initial Screening, 4-hour ([5]; 4-hour): 3.6 × 10^6 CFU/mL; CFU/mL, Initial Screening, 24-hour [5, 6]: 1.9 × 10^7 CFU/mL |
